Assay results published in publication PMC4635571 (Journal of immunology (Baltimore, Md. : 1950), 2015).

Key:
Rag2−/− hosts = test: CD4+ CD45RBhi T cell adoptive transfer model of colitis; format: in vivo
[1] = test system: Human peripheral blood mononuclear cells (PBMC); test: Cytokine production by human PBMC; format: cell-based
[2] = test system: HCT116 colorectal carcinoma cell line; test: Inhibition of proliferation of HCT116 cells; format: cell-based; conditions: read-out: IC50 of inhibition of proliferation; HCT116, general cytotoxicity
CD-1 mice = test: Anti-CD3-induced cytokines in mouse plasma; format: in vivo; conditions: 20 mg/kg i.p., anti-CD3 1hr or 6hr later, plasma 2hr post-anti-CD3
phosphorylated-PLCγ1 = test: In vivo target engagement assay; set-up: species or system mouse; conditions: 40 mg/kg oral, 2hr or 6hr post-treatment, ex vivo anti-CD3/CD28 stimulation
naïve CD4+ T cells = format: cell-based, mouse
ITK = conditions: versus e.g. BMS-509744 and BMS-488516; Fig. 1B
polarized CD4+ T cells [3] = test: P-selectin; format: cell-based, mouse
polarized CD4+ T cells [4] = test: Transwell cell migration assay; format: cell-based, mouse; conditions: 3hr, cells cultured with 25 or 50nM PRN694

C=CC(=O)N1CCC[C@@H]1Cn1c(NC(=O)c2ccc(C(F)F)s2)nc2cc(CN[C@@H](C)C(C)(C)C)ccc21 [PRN694]
toxicity during long-term in vivo administration (Rag2−/− hosts; 7 week dosing time frame): no apparent toxicity | CD4+ T cell proportions in intestinal epithelium and LP versus vehicle (Rag2−/− hosts; 7 weeks post-transfer): significantly less | expression of integrin α4β7 and CCR6 on intestinal epithelial CD4+ T cells (Rag2−/− hosts; 7 weeks post-transfer): reduced | histological analysis of the colonic epithelium (Rag2−/− hosts; 7 weeks post-transfer, H&E): reduced inflammation | proportions of cells capable of producing IL-2 (Rag2−/− hosts; 7 weeks post-transfer, PMA/Ionomycin): reduced proportions | reduced colon length (Rag2−/− hosts; 7 weeks post-transfer, oral dosing): prevented | proportions of CD4+ T cells expressing Foxp3 (Rag2−/− hosts; all organs examined, 7 weeks post-transfer): significantly reduced | behavioral indications of toxicity (Rag2−/− hosts; long-term in vivo administration): no behavioral indications of drug-mediated toxicity | proportions of CD4+ T cells producing IFN-γ (Rag2−/− hosts; mesenteric LN, IEL and LP, 7 weeks post-transfer, PMA/Ionomycin): markedly reduced | weight change (disease progression) (Rag2−/− hosts; oral 40 mg/kg once a day or 20 mg/kg twice a day, 7 weeks): no weight loss | increase in IFN-γ, IL-6 and IL-2 induced by anti-CD3/CD28 ([1]; 20nM PRN694, 18hr): strongly inhibited | increase in IFN-γ, IL-6 and IL-2 induced by anti-CD3/CD28 ([1]; 5.0μM PRN694, 18hr): completely blocked | ability to inhibit IL-2 production on thapsigargin stimulation ([1]; PBMC stimulated with thapsigargin 10 μM, 18hr): strongly impaired | IC50 [2]: 10 µM | increase in plasma IFN-γ, IL-6 and IL-2 induced by anti-CD3 (CD-1 mice): inhibited | phosphorylation of PLCγ1 (phosphorylated-PLCγ1): completely blocked | inhibition of IFN-γ production by TH1 cells (naïve CD4+ T cells; 25nM PRN694, TH1-polarizing conditions, 72hr, PMA/Ionomycin restimulation 5hr): > 50% | expression levels of transcription factors (T-bet, GATA-3, RORγt) (naïve CD4+ T cells; TH1, TH2, TH17 polarization with inhibitor): decreased | IL-2 production by in vitro polarized CD4+ T cells (naïve CD4+ T cells; all three lineages of T helper cells, 72hr): inhibited | inhibition of IL-4 production by TH2 cells (naïve CD4+ T cells; any of the doses tested, TH2-polarizing conditions, 72hr): < 50% | fold more potent in inhibiting ITK than previously-described ITK inhibitors (ITK): 63- to 320 fold | P-selectin binding of TH1 and TH17 cells (polarized CD4+ T cells [3]; differentiated 72hr with 25 or 50nM PRN694): reduced P-selectin binding | P-selectin binding of TH2 cells (polarized CD4+ T cells [3]; only visible in the higher dose of inhibitor (50nM)): only a modest reduction | TH17 migration to CCL20 (polarized CD4+ T cells [4]; CCL20 100 ng/mL): reduced approximately two-fold | TH1 migration to CXCL11 (polarized CD4+ T cells [4]; CXCL11 100 ng/mL): inhibited
